Source: EP4644383A1 (Jiangsu Yahong Meditech Co., Ltd., priority 2022, dated 2024)
Where two headings read alike, the source gives them in different places.

How the values were obtained:
FGFR3 = target: T1, FGFR3 (Homo sapiens, UniProt P22607); experiment: FGFR3 kinase activity inhibition assay (LanthaScreen TR-FRET); assay type: biochemical; details: for Selectivity (X) FGFR1/FGFR3: ratio of IC50 FGFR1/FGFR3, selectivity towards FGFR3
T1 construct: FGFR3's cytoplasmic domain [436-806 (terminal) amino acids]; purchased Carna 08-135
Experimental: PV3552) and 10 mM EDTA were added to quench the kinase reaction, and incubated at 22°C for 60 minutes. • ⑤ The reaction was measured using a PerkinElmer EnVision multimode plate reader through TR-FRET dual wavelength detection. • 1. The RFU values were copied from the Envision program. • 2. The ratio of RFU 520nm/RFU 495nm was calculated. • 3. The value of the ratio was converted to a percentage inhibition value. % Inhibition = (max-data)/(max-min) × 100 [formula] "Min" represents the ratio of the control without enzyme, "max" represents the ratio of the DMSO control, and "data" represents the ratio of the compounds in wells with different concentrations. […] "Top" refers to the maximum response, "Bottom" refers to the minimum response, and "HillSlope" refers to the slope of the curve. According to the same method as that in the FGFR1 kinase activity inhibition assay, the inhibitory activities against FGFR2, FGFR3 and FGFR4 were tested using FGFR2's cytoplasmic domain [399-821 (terminal) amino acids] (Carna: 08-134), FGFR3's cytoplasmic domain [436-806 (terminal) amino acids] (Carna: 08-135) and FGFR4's cytoplasmic domain [460-802 (terminal) amino acids] (Carna: 08-136), respectively. […]

FGFR1 = target: T2, FGFR1 (Homo sapiens, UniProt P11362); experiment: FGFR1 kinase activity inhibition assay (LanthaScreen TR-FRET); assay type: biochemical
T2 construct: cytoplasmic domain [398-822 (terminal) amino acids]; purchased Carna 08-133
Experimental: PV3552) and 10 mM EDTA were added to quench the kinase reaction, and incubated at 22°C for 60 minutes. • ⑤ The reaction was measured using a PerkinElmer EnVision multimode plate reader through TR-FRET dual wavelength detection. • 1. The RFU values were copied from the Envision program. • 2. The ratio of RFU 520nm/RFU 495nm was calculated. • 3. The value of the ratio was converted to a percentage inhibition value. % Inhibition = (max-data)/(max-min) × 100 [formula] "Min" represents the ratio of the control without enzyme, "max" represents the ratio of the DMSO control, and "data" represents the ratio of the compounds in wells with different concentrations. […] "Top" refers to the maximum response, "Bottom" refers to the minimum response, and "HillSlope" refers to the slope of the curve.

[1] = FGFR3 kinase, TR-FRET, read-out: IC50 (nM) FGFR3
[2] = FGFR1 kinase, TR-FRET, read-out: IC50 (nM) FGFR1

T2 sequence (P11362 398-822): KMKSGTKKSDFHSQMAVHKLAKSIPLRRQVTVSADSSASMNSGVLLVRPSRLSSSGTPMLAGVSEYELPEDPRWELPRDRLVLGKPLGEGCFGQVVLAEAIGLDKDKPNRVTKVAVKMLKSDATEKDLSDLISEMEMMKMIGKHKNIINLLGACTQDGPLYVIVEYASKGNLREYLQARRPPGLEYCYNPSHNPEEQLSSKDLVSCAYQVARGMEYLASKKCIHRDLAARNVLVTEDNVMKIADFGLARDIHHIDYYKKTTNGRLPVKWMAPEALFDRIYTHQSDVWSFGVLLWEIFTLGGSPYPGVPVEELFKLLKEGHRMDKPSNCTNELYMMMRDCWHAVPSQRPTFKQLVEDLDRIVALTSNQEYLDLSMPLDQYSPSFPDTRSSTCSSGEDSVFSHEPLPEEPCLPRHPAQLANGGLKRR
T1 sequence (P22607 436-806): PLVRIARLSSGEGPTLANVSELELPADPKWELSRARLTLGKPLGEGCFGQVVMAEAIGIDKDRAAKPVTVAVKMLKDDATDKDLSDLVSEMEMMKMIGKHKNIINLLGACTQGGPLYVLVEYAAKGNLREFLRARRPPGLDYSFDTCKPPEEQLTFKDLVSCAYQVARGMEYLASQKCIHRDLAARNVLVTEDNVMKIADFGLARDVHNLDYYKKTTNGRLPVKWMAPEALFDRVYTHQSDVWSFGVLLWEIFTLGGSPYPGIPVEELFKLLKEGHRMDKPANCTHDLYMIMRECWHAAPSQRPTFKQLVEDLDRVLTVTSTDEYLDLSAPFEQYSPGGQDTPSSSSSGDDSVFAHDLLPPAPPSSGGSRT

| Selectivity (X) FGFR1/FGFR3 (FGFR3) | IC50 (FGFR3; [1]) [nM] | IC50 (FGFR1; [2]) [nM] | SMILES | IC50 (FGFR3) [nM] | IC50 (FGFR1) [nM] |
| --- | --- | --- | --- | --- | --- |
| A (A represents 1 ≤ multiple X<20) | < 1 | 1 to 10 | C[C@@H](Oc1ccc2[nH]nc(-c3cnn(CCCN4CCOCC4)c3)c2n1)c1c(Cl)cncc1Cl [Example 32, (R)-4-(3-(4-(5-(1-(3,5-dichloropyridin-4-yl)ethoxy)-1H-pyrazolo[4,3-b]pyridin-3-yl)-1H-pyrazol-1-yl)propyl)morpholine] | – | – |
| A (A represents 1 ≤ multiple X<20) | 1 to 10 | 1 to 10 | C[C@@H](Oc1ccc2[nH]nc(-c3cnn(C4CCOCC4)c3)c2n1)c1c(Cl)cncc1Cl [Example 34, (R)-5-(1-(3,5-dichloropyridin-4-yl)ethoxy)-3-(1-(tetrahydro-2H-pyran-4-yl)-1H-pyrazol-4-yl)1H-pyrazolo[4,3-b]pyridine] | – | – |
| B (B represents 20 ≤ multiple X<50) | 1 to 10 | 10 to 100 | C[C@@H](Oc1ccc2[nH]nc(-c3cnn(CCS(C)(=O)=O)c3)c2n1)c1c(Cl)cncc1Cl [Example 42, (R)-5-(1-(3,5-dichloropyridin-4-yl)ethoxy)-3-(1-(2-(methylsulfonyl)ethyl)-1H-pyrazol-4-yl)-1H-pyrazolo[4,3-b]pyridine] | – | – |
| A (A represents 1 ≤ multiple X<20) | 10 to 100 | > 100 | C[C@@H](Oc1ccc2[nH]nc(-c3cnn4c3CCC4)c2n1)c1c(Cl)cncc1Cl [Example 45, (R)-5-(1-(3,5-dichloropyridin-4-yl)ethoxy)-3-(5,6-dihydro-4H-pyrrolo[1,2-b]pyrazol-3-yl)-1H-pyrazolo[4,3-b]pyridine] | – | – |
| B (B represents 20 ≤ multiple X<50) | < 1 | 10 to 100 | CCCn1cc(-c2n[nH]c3ccc(O[C@H](C)c4c(Cl)cncc4Cl)nc23)cn1 [Example 46, (R)-5-(1-(3,5-dichloropyridin-4-yl)ethoxy)-3-(1-propyl-1H-pyrazol-4-yl)-1H-pyrazolo[4,3-b]pyridine] | – | – |
| B (B represents 20 ≤ multiple X<50) | 1 to 10 | 10 to 100 | C[C@@H](Oc1ccc2[nH]nc(-c3cnn(CC4CC4)c3)c2n1)c1c(Cl)cncc1Cl [Example 49, (R)-3-(1-(cyclopropylmethy 1)-1H-pyrazol-4-yl)-5-(1-(3,5-dichloropyridin-4-yl)ethoxy)-1H-pyrazolo[4,3-b]pyridine] | – | – |
| A (A represents 1 ≤ multiple X<20) | < 1 | 10 to 100 | C[C@@H](Oc1ccc2[nH]nc(-c3cnn(CCC#N)c3)c2n1)c1c(Cl)cncc1Cl [Example 50, (R)-3-(4-(5-(1-(3,5-dichloropyridin-4-yl)ethoxy)-1H-pyrazolo[4,3-b]pyridin-3-yl)-1H-pyrazol-1-yl)propionitrile] | – | – |
| A (A represents 1 ≤ multiple X<20) | 10 to 100 | > 100 | Cc1ncc(-c2n[nH]c3ccc(O[C@H](C)c4c(Cl)cncc4Cl)nc23)cn1 [Example 52, (R)-5-(1-(3,5-dichloropyridin-4-yl)ethoxy)-3-(2-methylpyrimidin-5-yl)-1H-pyrazolo[4,3-b]pyridine] | – | – |
| A (A represents 1 ≤ multiple X<20) | < 1 | 1 to 10 | C[C@@H](Oc1ccc2[nH]nc(-c3cnn(CCN4CCN(C)CC4)c3)c2n1)c1c(Cl)cncc1Cl [Example 53, (R)-5-(1-(3,5-dichloropyridin-4-yl)ethoxy)-3-(1-(2-(4-methylpiperazin-1-yl)ethyl)-1H-pyrazol-4-yl)-1H-pyrazolo[4,3-b]pyridine] | – | – |
| A (A represents 1 ≤ multiple X<20) | < 1 | 1 to 10 | C[C@@H](Oc1ccc2[nH]nc(-c3cnn(CCN4CCN(S(C)(=O)=O)CC4)c3)c2n1)c1c(Cl)cncc1Cl [Example 56, (R)-5-(1-(3,5-dichloropyridin-4-yl)ethoxy)-3-(1-(2-(4-(methylsulfonyl)piperazin-1-yl)ethyl)-1H-pyrazol-4-yl)-1H-pyrazolo[4,3-b]pyridine] | – | – |
| A (A represents 1 ≤ multiple X<20) | < 1 | 1 to 10 | CC(=O)N1CCN(CCn2cc(-c3n[nH]c4ccc(O[C@H](C)c5c(Cl)cncc5Cl)nc34)cn2)CC1 [Example 57, (R)-1-(4-(2-(4-(5-(1-(3,5-dichloropyridin-4-yl)ethoxy)-1H-pyrazolo[4,3-b]pyridin-3-yl)-1H-pyrazol-1-yl)ethyl)piperazin-1-yl)ethan-1-one] | – | – |
| A (A represents 1 ≤ multiple X<20) | 1 to 10 | 10 to 100 | C[C@@H](Oc1ccc2[nH]nc(-c3cnn(CC(=O)N4CCOCC4)c3)c2n1)c1c(Cl)cncc1Cl [Example 63, (R)-2-(4-(5-(1-(3,5-dichloropyridin-4-yl)ethoxy)-1H-pyrazolo[4,3-b]pyridin-3-yl)-1H-pyrazol-1-yl)-1-morpholinoethan-1-one] | – | – |
| A (A represents 1 ≤ multiple X<20) | 1 to 10 | 10 to 100 | C[C@@H](Oc1ccc2[nH]nc(-c3cnn(CCN4CCCC4=O)c3)c2n1)c1c(Cl)cncc1Cl [Example 64, (R)-1-(2-(4-(5-(1-(3,5-dichloropyridin-4-yl)ethoxy)-1H-pyrazolo[4,3-b]pyridin-3-yl)-1H-pyrazol-1-yl)ethyl)pyrrolidin-2-one] | – | – |
| A (A represents 1 ≤ multiple X<20) | > 100 | > 100 | CNCCNS(=O)(=O)c1ccc2[nH]nc(-c3cnn(C)c3)c2c1 [Example 76, 3-(1-methyl-1H-pyrazol-4-yl)-N-(2-(methylamino)ethyl)-1H-indazole-5-sulfonamide] | – | – |

| SMILES | Selectivity (X) FGFR1/FGFR3 (FGFR3) | IC50 (FGFR3; [1]) [nM] | IC50 (FGFR1; [2]) [nM] | IC50 (FGFR3) [nM] | IC50 (FGFR1) [nM] |
| --- | --- | --- | --- | --- | --- |
| COc1cc(O[C@H](C)c2c(Cl)cncc2Cl)cc2c(-c3cnn(CCN4CCOCC4)c3)n[nH]c12 [Example 25, (R)-4-(2-(4-(5-(1-(3,5-dichloropyridin-4-yl)ethoxy)-7-methoxy-1H-indazol-3-yl)-1H-pyrazol-1-yl)ethyl)morpholine] | B (B represents 20 ≤ multiple X<50) | – | – | > 100 | > 100 |
| Cc1cc(O[C@H](C)c2c(Cl)cncc2Cl)cc2c(-c3cnn(CC4CC4)c3)n[nH]c12 [Example 26, (R)-3-(1-(cyclopropylmethyl)-1H-pyrazol-4-yl)-5-(1-(3,5-dichloropyridin-4-yl)ethoxy)-7-methyl-1H-indazole] | B (B represents 20 ≤ multiple X<50) | – | – | 10 to 100 | > 100 |
| Cc1c(-c2n[nH]c3ccc(O[C@H](C)c4c(Cl)cncc4Cl)nc23)cnn1C [Example 30, (R)-5-(1-(3,5-dichloropyridin-4-yl)ethoxy)-3-(1,5-dimethyl-1H-pyrazol-4-yl)-1H-pyrazolo[4,3-b]pyridine] | A (A represents 1 ≤ multiple X<20) | – | – | 10 to 100 | 10 to 100 |
| CC(=O)N1CCC(n2cc(-c3n[nH]c4ccc(O[C@H](C)c5c(Cl)cncc5Cl)nc34)cn2)CC1 [Example 35] | A (A represents 1 ≤ multiple X<20) | – | – | < 1 | 1 to 10 |
| COCCn1cc(-c2n[nH]c3ccc(O[C@H](C)c4c(Cl)cncc4Cl)nc23)cn1 [Example 40, (R)-5-(1-(3,5-dichloropyridin-4-yl)ethoxy)-3-(1-(2-methoxyethyl)-1H-pyrazol-4-yl)-1H-pyrazolo[4,3-b]pyridine] | A (A represents 1 ≤ multiple X<20) | – | – | 1 to 10 | 10 to 100 |
